Measured values reported in patent US20230114728A1 (Venatorx Pharmaceuticals, Inc., priority 2019, published 2023).

Experiments:
A. baumannii PBP2 = biological target: T1, A. baumannii PBP2 (Acinetobacter baumannii, UniProt D0C8Z9); experiment: Bocillin-FL fluorescence polarization competition binding assay, A. baumannii PBP2; details: fluorescence polarization competition binding assay using Bocillin-FL; read-out: A. baumannii PBP2 Potency
T1 construct: made in house
T1 sequence (D0C8Z9 1-672): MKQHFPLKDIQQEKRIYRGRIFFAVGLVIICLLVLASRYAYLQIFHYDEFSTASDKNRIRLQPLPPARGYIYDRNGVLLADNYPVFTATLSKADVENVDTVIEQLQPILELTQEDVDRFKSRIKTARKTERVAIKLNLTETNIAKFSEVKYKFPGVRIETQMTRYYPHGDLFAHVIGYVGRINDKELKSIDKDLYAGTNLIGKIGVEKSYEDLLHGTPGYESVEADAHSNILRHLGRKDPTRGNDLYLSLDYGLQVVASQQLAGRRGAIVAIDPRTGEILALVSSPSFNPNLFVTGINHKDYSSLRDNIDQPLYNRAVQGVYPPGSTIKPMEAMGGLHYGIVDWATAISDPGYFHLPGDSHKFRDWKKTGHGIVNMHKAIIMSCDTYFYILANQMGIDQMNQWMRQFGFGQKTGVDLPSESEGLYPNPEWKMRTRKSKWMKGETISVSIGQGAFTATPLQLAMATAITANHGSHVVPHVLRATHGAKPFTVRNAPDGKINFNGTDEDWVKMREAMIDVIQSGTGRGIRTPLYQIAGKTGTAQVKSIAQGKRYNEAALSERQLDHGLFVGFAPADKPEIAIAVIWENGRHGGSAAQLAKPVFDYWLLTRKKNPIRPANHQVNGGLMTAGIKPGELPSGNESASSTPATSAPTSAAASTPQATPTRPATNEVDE
Description: (§1) Example I: Experimental Method for Penicillin-Binding Protein Binding Assays with Bocillin-FL Via Fluorescence Polarization
(§2) To determine the ability of boronic acid-based test PBP inhibitors to bind Penicillin Binding Proteins (PBPs), Bocillin-FL (fluorescently-labeled penicillin V; ThermoFisher Scientific) was used in a fluorescence polarization (FP) competition binding assay to assess inhibitor binding to PBP2, PBP3 or PBP4 from Escherichia coli (K12), PBP3 from Pseudomonas aeruginosa (PA01), PBP1a, PBP2 and PBP3 from Acinetobacter baumannii (ATCC 19606), and PBP2 from Neiserria gonorrheae (FA19). PBPs were cloned and purified as described previously (E. coli PBPs, King, D. T, et al., ACS Infectious Diseases 2015, 1, 175-184; P. aeruginosa PBP3, Han et. al., PNAS 2010, 107 (51), 22002-22007; A. baumannii PBPs, Penwell et. al., Antimicrob. Agents Chemother. 2015, 59 (3), 1680-1689; N. gonorrhoeae PBP2, Singh et. al., J Biol. Chem. 2019, 294 (38), 14020-14032). To establish assay conditions for competition binding, enzyme titration/saturation binding experiments were initially performed. Bocillin-FL was prepared at 0.2 μM in a buffer comprised of 50 mM Hepes (pH 8.0), 300 mM NaCl and 5% (v/v) glycerol for reactions with E. coli, P. aeruginosa and N. gonorrhoeae PBPs, and 25 mM Tris (pH 8.0), 200 mM NaCl and 10% (v/v) glycerol and 0.005% (v/v) Tween 20 for reactions with A. baumannii PBPs. Saturation binding was performed by mixing 40 μl of PBP solutions ranging in concentrations from 0-24 μM with 40 μl of the 0.2 μM Bocillin-FL solution, in individual wells of a black 384-well microplate. FP was measured immediately upon mixing (Excitation, 490 nm; Emission, 520 nm; g-factor, 0.96), using a Cytation3 (BioTek) microplate reader and measured continuously for up to 120 minutes. […] The competition binding assay (80 μl final volume) was validated using beta-lactams and PBPs at final concentrations of: 1.5 μM, E. coli PBP3; 0.75 μM, P. aeruginosa PBP3; 1 μM A. baumannii PBP1a; 2.5 μM A. baumannii PBP2; 0.2 μM A. baumannii PBP3; and […] N. gonorrhoeae PBP2. Bocillin-FL was at 0.1 μM (0.05 μM with A. baumannii PBP1a) and beta-lactam concentrations ranged from 0-1000 μM. […] Bocillin-FL was added and the FP immediately measured for up to 60 minutes (90 minutes for E. coli PBP2). […] The beta-lactam potency was reported as the concentration of beta-lactam required to reduce the amount of PBP bound-Bocillin-FL by 50% (EC50). […] Binding assays for boronic acid PBP inhibitors were performed in an identical fashion for the respective PBPs

A. baumannii PBP1a = A. baumannii PBP1a (Acinetobacter baumannii, UniProt A0ABX6CK30); experiment: Bocillin-FL fluorescence polarization competition binding assay, A. baumannii PBP1a; details: fluorescence polarization competition binding assay using Bocillin-FL; column 1; read-out: A. baumannii PBP1a Potency
Sequence of A. baumannii PBP1a (A0ABX6CK30 entry or part of it): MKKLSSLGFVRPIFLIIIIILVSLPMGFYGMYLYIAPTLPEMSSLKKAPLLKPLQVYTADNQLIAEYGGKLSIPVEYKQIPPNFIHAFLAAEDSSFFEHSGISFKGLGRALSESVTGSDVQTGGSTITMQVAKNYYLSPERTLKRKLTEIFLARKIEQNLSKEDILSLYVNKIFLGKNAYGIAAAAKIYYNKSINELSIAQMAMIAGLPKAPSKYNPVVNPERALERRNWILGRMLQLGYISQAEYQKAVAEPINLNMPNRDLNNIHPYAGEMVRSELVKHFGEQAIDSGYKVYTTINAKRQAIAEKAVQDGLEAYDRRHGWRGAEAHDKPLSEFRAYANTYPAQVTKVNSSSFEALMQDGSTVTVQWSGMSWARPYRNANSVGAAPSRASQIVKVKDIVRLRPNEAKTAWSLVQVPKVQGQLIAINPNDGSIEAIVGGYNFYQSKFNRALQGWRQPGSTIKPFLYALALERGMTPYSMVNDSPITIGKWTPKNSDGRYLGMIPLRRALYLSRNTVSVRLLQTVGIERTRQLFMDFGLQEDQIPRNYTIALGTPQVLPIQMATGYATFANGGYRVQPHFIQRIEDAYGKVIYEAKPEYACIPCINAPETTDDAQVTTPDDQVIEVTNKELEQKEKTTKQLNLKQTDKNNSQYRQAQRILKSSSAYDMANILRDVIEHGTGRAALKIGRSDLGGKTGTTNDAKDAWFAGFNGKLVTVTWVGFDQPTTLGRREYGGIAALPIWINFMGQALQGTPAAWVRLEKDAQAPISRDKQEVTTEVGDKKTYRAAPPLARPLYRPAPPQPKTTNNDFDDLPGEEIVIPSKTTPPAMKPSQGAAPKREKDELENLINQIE
Description: as §1, §2

P. aeruginosa PAO1 = experiment: Broth microdilution MIC in CAMHB; assay type: cell-based; details: Pseudomonas aeruginosa, MHB, read-out: Minimum Inhibitory Concentration, P. aeruginosa PAO1
Description: To determine the ability of test compounds to inhibit the growth of bacterial strains, classic cell based broth microdilution minimum inhibitory concentration (MIC) assays were employed. MIC assays are performed according to CLSI methods except where otherwise noted (CLSI, 2018 and CLSI, 2019). The reference type strain E. coli ATCC 25922; the wild-type parent strain E. coli AG100; the hyper-permeable E. coli 901C and E. coli D22; and the E. coli AG100A strain lacking the acrAB efflux pump encoding genes were used to determine the ability of the PBP inhibitors to penetrate the outer membrane of gram-negative bacteria and inhibit bacterial growth. […] The P. aeruginosa ATCC 27853 and A. baumannii ATCC 19606, along with the hyper-permeable P. aeruginosa ATCC 35151 and an engineered efflux pump-compromised strain of P. aeruginosa (ΔmexAB-oprM) were used to determine the ability of PBP inhibitors to penetrate the outer membrane of P. aeruginosa and A. baumannii and assess antibacterial activity against these important gram-negative organisms.
Briefly, cryo-preserved bacterial cultures of challenge strains are streaked for isolation on appropriate agar medium, in this case cation-adjusted Mueller Hinton agar. Following incubation to allow growth of the colonies, plates are sealed with parafilm and stored refrigerated for up to two weeks. For preparation of assay inoculum and to ensure low variability, at least 5 colonies are picked from the agar plates with an inoculating loop and aseptically transferred to a culture tube containing 3 mL of cation-adjusted Mueller Hinton broth (CAMHB). The broth culture is grown for 3-5 hours at 37° C. with shaking at 200 rpm. Meanwhile, 2-fold serial dilutions of test compounds are conducted in a 96-well plate with a final volume of 75 μL per well at 2-fold the final desired concentration. After the dilution plates are set up the growing cultures are then diluted in a cuvette containing CAMHB and the optical density is measured at 600 nm. The inoculum is diluted such that 75 μL of this culture in CAMHB results in a starting bacterial concentration of 2-8×10^5 CFU/mL when added to the dilution plates. The plates are incubated for 16-20 hours for Enterobacteriaceae and Pseudomonas and 20-24 hours for Acinetobacter at 37° C. The MIC values are read visually as the lowest concentration well with no bacterial growth.

Structure (SMILES) | EC50 (A. baumannii PBP2) [µM] | EC50 (A. baumannii PBP1a) [µM] | MIC (P. aeruginosa PAO1) [µg/mL]
CCN1CCN(C(=O)NC(C(=O)N[C@H]2Cc3cccc(C(=O)O)c3OB2O)c2ccc(O)c(NC(=O)c3ccc(O)c(O)c3Cl)c2)C(=O)C1=O (stereo partly drawn) [Example 74, (3R)-3-(2-(3-(2-chloro-3,4-dihydroxybenzamido)-4-hydroxyphenyl)-2-(4-ethyl-2,3-dioxopiperazine-1-carboxamido)acetamido)-2-hydroxy-3,4-dihydro-2H-benzo[e][1,2]oxaborinine-8-carboxylic acid] | > 100 | 30 to 100 | 
CCN1CCN(C(=O)NC(C(=O)N[C@H]2Cc3ccc(OCCN)c(C(=O)O)c3OB2O)c2ccccc2)C(=O)C1=O (stereo partly drawn) [Example 60, (3R)-7-(2-aminoethoxy)-3-(2-(4-ethyl-2,3-dioxopiperazine-1-carboxamido)-2-phenylacetamido)-2-hydroxy-3,4-dihydro-2H-benzo[e][1,2]oxaborinine-8-carboxylic acid] |  |  | > 128
CCN1CCN(C(=O)NC(C(=O)N[C@H]2Cc3ccc(C=O)c(C(=O)O)c3OB2O)c2csc(N)n2)C(=O)C1=O (stereo partly drawn) [Example 57, (3R)-3-(2-(2-aminothiazol-4-yl)-2-(4-ethyl-2,3-dioxopiperazine-1-carboxamido)acetamido)-7-formyl-2-hydroxy-3,4-dihydro-2H-benzo[e][1,2]oxaborinine-8-carboxylic acid] |  |  | > 128
CCN1CCN(C(=O)NC(C(=O)N[C@H]2Cc3ccc(CO)c(C(=O)O)c3OB2O)c2csc(N)n2)C(O)C1=O (stereo partly drawn) [Example 58, (3R)-3-(2-(2-aminothiazol-4-yl)-2-(4-ethyl-2-hydroxy-3-oxopiperazine-1-carboxamido)acetamido)-2-hydroxy-7-(hydroxymethyl)-3,4-dihydro-2H-benzo[el][1,2]oxaborinine-8-carboxylic acid] |  |  | > 128
CS(=O)(=O)N1CCN(C(=O)NC(C(=O)N[C@H]2Cc3ccc(F)c(C(=O)O)c3OB2O)c2ccc(O)c(O)c2Cl)C1=O (stereo partly drawn) [Example 23, (3R)-3-(2-(2-chloro-3,4-dihydroxyphenyl)-2-(3-(methylsulfonyl)-2-oxoimidazolidine-1-carboxamido)acetamido)-7-fluoro-2-hydroxy-3,4-dihydro-2H-benzo[e][1,2]oxaborinine-8-carboxylic acid] | > 100 | > 100 | 
NCCCN1CCN(C(=O)N[C@@H](C(=O)N[C@H]2Cc3ccc(F)c(C(=O)O)c3OB2O)c2c(F)cc(O)c(O)c2Cl)C(=O)C1=O (single isomer, unassigned) [Example 27] | > 100 | > 100 | 
CCN1CCN(C(=O)NC(C(=O)N[C@H]2Cc3ccc(O[C@@H]4CN[C@H](C(=O)N(C)C)C4)c(C(=O)O)c3OB2O)c2ccccc2)C(=O)C1=O (stereo partly drawn) [Example 59, (3R)-7-(((3S,5S)-5-(dimethylcarbamoyl)pyrrolidin-3-yl)oxy)-3-(2-(4-ethyl-2,3-dioxopiperazine-1-carboxamido)-2-phenylacetamido)-2-hydroxy-3,4-dihydro-2H-benzo[e][1,2]oxaborinine-8-carboxylic acid] |  |  | > 128
CCN1CCN(C(=O)NC(C(=O)N[C@H]2Cc3ccc(SCc4ccc(O)cc4)c(C(=O)O)c3OB2O)c2csc(N)n2)C(=O)C1=O (stereo partly drawn) [Example 55, (3R)-3-(2-(2-aminothiazol-4-yl)-2-(4-ethyl-2,3-dioxopiperazine-1-carboxamido)acetamido)-2-hydroxy-7-((4-hydroxybenzyl)thio)-3,4-dihydro-2H-benzo[e][1,2]oxaborinine-8-carboxylic acid] |  |  | > 128
NCCN1CCN(C(=O)N[C@@H](C(=O)N[C@H]2Cc3ccc(F)c(C(=O)O)c3OB2O)c2c(F)cc(O)c(O)c2Cl)C(=O)C1=O (single isomer, unassigned) [Example 26] | > 100 | > 100 | 
NCCN1CCN(C(=O)N[C@@H](C(=O)N[C@H]2Cc3ccc(F)c(C(=O)O)c3OB2O)c2c(F)cc(O)c(O)c2F)C(=O)C1=O (single isomer, unassigned) [Example 40] | 30 to 100 | > 100 | 
O=C(O)c1c(F)ccc2c1OB(O)[C@@H](NC(=O)[C@H](NC(=O)N1CCNC1=O)c1c(F)cc(O)c(O)c1Cl)C2 (single isomer, unassigned) [Example 34] | 30 to 100 | > 100 | 
